Earlier results as cited in patent publication US12171869B2, “Intracameral drug delivery depots” (Incept, LLC., priority 2016, dated 2024).
Where “and” joins values, the source holds several entries; their conditions need not be identical. Identical values can stand only once. Values belong to the compound of their own block, whether it stands above or below them.

Legend:
[1] = intracameral administration, clinical studies (Charters 2016); 10 μg dose
[2] = eye drop studies in humans (Faulkner et al., 2010; Martinez-de-la-Casa et al., 2012)
[3] = tested on: beagle; details: 0.004% once a day, normal healthy beagles, 5 treatment days (Carvalho et al., 2006)

Structure (SMILES): CCNC(=O)CCC/C=C\C[C@@H]1[C@@H](/C=C/[C@@H](O)CCc2ccccc2)[C@H](O)C[C@@H]1O [bimatoprost]
duration of IOP reduction [1]: up to 4 months

travoprost free acid Cmax [2]: ~2 ng/mL and ~3 ng/mL
Structure (SMILES): O=C(O)CCC/C=C\C[C@@H]1[C@@H](/C=C/[C@@H](O)COc2cccc(C(F)(F)F)c2)[C@H](O)C[C@@H]1O [travoprost free acid]

Structure (SMILES): CC(C)OC(=O)CCC/C=C\C[C@@H]1[C@@H](/C=C/[C@@H](O)COc2cccc(C(F)(F)F)c2)[C@H](O)C[C@@H]1O [travoprost, isopropyl (Z)-7-[(1R,2R,3R,5 S)-3,5-dihydroxy-2-[(1E,3R)-3-hydroxy-4-[(α,α,α-trifluoro-m-tolyl)oxy]-1-butenyl]cyclopentyl]-5-heptenoate]
hyperemia [3]: hyperemia for the entire treatment period
